Data: patent publication US10106565B2 (priority 2008, dated 2018)

Columns and labels:
[1] = tested on: mice immunized against myelin oligodendrocyte protein peptide 35-55; assay: Experimental Autoimmune Encephalomyelitis (EAE) mouse model; type: in vivo; details: 45 days post-immunization, control about 4
Text: Experimental Autoimmune Encephalomyelitis (EAE) is an inflammatory disease of the Central Nervous System (CNS) that shares clinical and immunopathological similarities with Multiple Sclerosis (MS). The model we have chosen is the classical model of active EAE induced by an immunization against myelin oligodendrocyte protein (MΦG) peptide 35-55 in mice. This leads to a chronic-progressive form of EAE resembling MS. Therefore, it is considered as a good model. Disease severity is scored on a clinical scale of 0 to 5 (0 being no detectable sign of EAE, 4 being tetraparalysis and 5 moribund or death). After MΦG-immunization, EAE scores for motor functions have been evaluated daily for 45 days for each animal. A preventive protocol (FIG. 17A) and a therapeutic protocol (FIG. 17B) have been tested. In both cases, mice are immunized with the MΦG peptide at Day 0 (first arrow of FIGS. 17A and 17B, corresponding to day 0 post-immunization). In the preventive protocol, intravenous administration of 10 mg/kg of dendrimer ABP started at Day 1 (FIG. 17A, second arrow, corresponding to 1 day post-immunization) and then every three days. In the therapeutic protocol, administration of ABP started once the disease is established at Day 18 (FIG. 17B, second arrow, corresponding to 18 days post-immunization), in the same conditions as the preventive protocol.

human monocytes [2] = assay: Affymetrix genechip transcriptional profile of monocytes activated by dendrimer; type: cell-based; details: 20 μM, 6 hours, vs untreated monocytes
Method: Peripheral Blood Mononuclear Cells (PBMC) from adult healthy volunteers are prepared as described in example 1.
Monocytes are then purified by positive selection using microbeads conjugated with anti-CD14 mAb, according to the manufacturer's instructions (Miltenyi Biotec). The cells obtained after the purification are >95% pure. The CD14 negative fraction is collected as Peripheral Blood Lymphocytes (PBL).
Monocytes are cultured at a final concentration of 1×10^6 cells/mL in complete RPMI 1640 medium (as described in example 1.1).
(§1) For genechip analysis, 10×10^6 monocytes from 3 donors (and from 3 more donors for quantitative PCR) are cultured in 25 cm^2 dishes. They are stimulated with 20 μM of dendrimer for 6 hours or remain untreated (control cells).
Total RNA are extracted from 10×10^6 monocytes using TRIzol™ Reagent (Invitrogen), according to the manufacturer's instructions. The quality and integrity of the RNA obtained are assessed by using an Agilent 2100 Bioanalyser (Agilent Technologies) after a denaturating step at 70° C. for 2 minutes. cRNA are prepared according to one-Cycle Target Labelling protocol (Affymetrix) starting from 1 μg of total RNA.
cRNA are fragmented and hybridized to Affymetrix HG-U133 plus 2.0 arrays. […] Monocytes from 3 donors are analyzed after 6 hour incubation in the presence or absence of the dendrimer Gc1. […]

human monocytes [3] = assay: Quantitative RT-PCR of mRNA expression in dendrimer-activated monocytes; type: cell-based; details: 20 μM, 6 hours; da-monocytes vs untreated monocytes, 6 donors
Method: as §1
Total RNA are purified as described above, and 5 μg are used to synthesize single-strand cDNA using M-MLV reverse transcriptase RNase H Minus (Promega), according to the manufacturer's instructions. Quantitative RT-PCR is then performed using the Platinium SYBR Green qPCR SuperMix UDG (Invitrogen) with forward and reverse primers at a final concentration of 300 nM. The primers are designed using Primer Express software from mRNA sequences submitted to Ensembl data base, and are listed in FIG. 7. Quantification of the different mRNA is performed on a 7000 Sequence Detection System (Applied Biosystems). PCR amplification begins with 1 cycle of 50° C. for 2 minutes and 95° C. for 10 minutes, followed with 40 cycles of denaturation at 95° C. for 15 seconds and annealing/extension at 60° C. for 60 seconds. All experiments are performed in duplicate. For each donor, the relative expression is calculated as 2^−ΔΔCt where ΔΔCt is the difference between ΔCt of the sample and the ΔCt of the reference consisting of the control monocytes. ΔCt is the difference between the Ct of the target gene and the GAPDH gene. For statistical analysis, a one-tailed paired t test is performed comparing the ΔCt values for the da-monocytes and the corresponding control monocytes with Sigma Stat software (Systat Software).

CD4 T lymphocytes = assay: Proliferation of CD4 T lymphocytes in PBMC induced by IL2 (CFSE dilution, flow cytometry); type: cell-based, human; details: 20 μM dendrimer; PBMC with IL2; IL2 alone gives 70.2%
Method: Peripheral blood samples are obtained from adult healthy volunteers through the Etablissement Français du Sang (Toulouse, France). Peripheral Blood Mononuclear Cells (PBMC) are isolated by Ficoll density gradient (Amersham Biosciences AB).
PBMC are cultured at a final concentration of 1.5×10^6 cells/mL in complete RPMI 1640 medium, i.e. supplemented with 10% of heat inactivated fetal calf serum (FCS) (Invitrogen), 1 mM sodium pyruvate (Invitrogen), 2 mM L-glutamine, 100 U/mL penicillin and 100 μg/mL streptomycin (Cambrex Bioscience). Proliferation is activated by 400 U/mL of interleukin 2 (IL2) (Sanofi-Aventis) (a “growth factor” for lymphocytes). […]
Proliferation of CD4 T lymphocytes is evaluated by flow cytometry by analyzing the intracellular dilution of a fluorescent probe: the 5,6-carboxyfluorescein diacetate N-succinimidylester (CFSE). […] Then, CFSE dilution is analyzed by flow cytometry to measure the proliferation CD4 T cells. After gating for CD4 positive cells (mouse anti-human CD4-PE-Cy5 clone 13B8.2, Beckman-Coulter), CFSE fluorescence intensities are analyzed, and the percentage of CD4 T cells which have proliferated during the culture is taken into account. […] The overall differences are evaluated by analysis of variance test (ANOVA) with Sigma Stat software (Systat Software).

## CN(/N=C/c1ccc(OP2(Oc3ccc(/C=N/N(C)P(=S)(Oc4ccc(CCN(CP(=O)(O)O)CP(=O)(O)O)cc4)Oc4ccc(CCN(CP(=O)(O)O)CP(=O)(O)O)cc4)cc3)=NP(Oc3ccc(/C=N/N(C)P(=S)(Oc4ccc(CCN(CP(=O)(O)O)CP(=O)(O)O)cc4)Oc4ccc(CCN(CP(=O)(O)O)CP(=O)(O)O)cc4)cc3)(Oc3ccc(/C=N/N(C)P(=S)(Oc4ccc(CCN(CP(=O)(O)O)CP(=O)(O)O)cc4)Oc4ccc(CCN(CP(=O)(O)O)CP(=O)(O)O)cc4)cc3)=NP(Oc3ccc(/C=N/N(C)P(=S)(Oc4ccc(CCN(CP(=O)(O)O)CP(=O)(O)O)cc4)Oc4ccc(CCN(CP(=O)(O)O)CP(=O)(O)O)cc4)cc3)(c3ccc(/C=N/N(C)P(=S)(Oc4ccc(CCN(CP(=O)(O)O)CP(=O)(O)O)cc4)Oc4ccc(CCN(CP(=O)(O)O)CP(=O)(O)O)cc4)cc3)=N2)cc1)P(=S)(Oc1ccc(CCN(CP(=O)(O)O)CP(=O)(O)O)cc1)Oc1ccc(CCN(CP(=O)(O)O)CP(=O)(O)O)cc1 (centres unmarked) [Gc1]
[1]; preventive protocol: 10 mg/kg intravenous from Day 1, every three days
  disease severity clinical score (EAE, scale 0 to 5): less than 1
[1]; therapeutic protocol: 10 mg/kg intravenous from Day 18, every three days
  disease severity clinical score (EAE, scale 0 to 5): about 1
Human monocytes [2]; fold change ≤−2.0 in at least two of three donors
  number of genes under-expressed by da-monocytes: 62
Human monocytes [2]; fold change ≥2.0 in at least two of three donors
  number of genes over-expressed by da-monocytes: 78
Human monocytes [3]
  mRNA expression of CCL5: significantly under-expressed
  mRNA expression of alternative activation genes MRC1, IL1 RN, IL10, CCL18 and CD23: significantly up-regulated
  mRNA expression of classical activation genes IL1β, IL6 and IL12: not significantly modified
CD4 T lymphocytes
  CD4 T lymphocytes that have divided: 17.2%
